Measurements from patent US9221795B2, “Phosphatidylinositol 3-kinase inhibitors” (Gilead Sciences, Inc., priority 2013, dated 2015).

Tests used:
PI3Kδ = PI3Kδ (Homo sapiens (Human), UniProt O00329); test: Enzymatic activity of PI3K isoforms, TR-FRET assay (PI3Kδ); assay type: biochemical; details: 2× Km ATP, geometric mean if more than one value
Outline: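 Recombinant heterodimeric PI3Kβ or PI3Kδ (25-50 pM) was run with 2 μM PIP2 and 2× Km ATP (75-500 μM) at pH 7.4, for 30 min at 25° C. PIP3 formation was detected by TR-FRET displacement of labeled PIP3 from Eu-GRP-1. IC50 values in nM come from four-parameter fits, as geometric means.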

basophils = test: Basophil activation in human whole blood (Flow2 CAST kit, CD63 flow cytometry); assay type: cell-based; details: Homo sapiens, human whole blood, basophils activated with anti-FcεRI mAb or fMLP, percent CD63 positive cells
[1] = Hepatocyte stability (parent drug disappearance in cryopreserved hepatocytes); assay type: in vitro ADME, human; details: human, cryopreserved human hepatocytes, human hepatocytes, 2 μM substrate, 37° C.
Experimental: This assay was used to evaluate the metabolic stability of test articles (TA) following incubation in cryopreserved hepatocytes by monitoring parent drug disappearance via LC/MC. The TA was incubated with 1 million hepatocytes/mL at 2 μM substrate in duplicate. The incubation was carried out at 37° C. with 5% CO2 and saturating humidity. Samples were taken at 0, 1, 2, and 4 hours to monitor the disappearance of TA and a half-life (t1/2) was determined. Table 3 below summarizes the human hepatocyte t1/2 values (hours) collected in the Example.

PI3Kδ, sequence (O00329 whole entry, canonical isoform): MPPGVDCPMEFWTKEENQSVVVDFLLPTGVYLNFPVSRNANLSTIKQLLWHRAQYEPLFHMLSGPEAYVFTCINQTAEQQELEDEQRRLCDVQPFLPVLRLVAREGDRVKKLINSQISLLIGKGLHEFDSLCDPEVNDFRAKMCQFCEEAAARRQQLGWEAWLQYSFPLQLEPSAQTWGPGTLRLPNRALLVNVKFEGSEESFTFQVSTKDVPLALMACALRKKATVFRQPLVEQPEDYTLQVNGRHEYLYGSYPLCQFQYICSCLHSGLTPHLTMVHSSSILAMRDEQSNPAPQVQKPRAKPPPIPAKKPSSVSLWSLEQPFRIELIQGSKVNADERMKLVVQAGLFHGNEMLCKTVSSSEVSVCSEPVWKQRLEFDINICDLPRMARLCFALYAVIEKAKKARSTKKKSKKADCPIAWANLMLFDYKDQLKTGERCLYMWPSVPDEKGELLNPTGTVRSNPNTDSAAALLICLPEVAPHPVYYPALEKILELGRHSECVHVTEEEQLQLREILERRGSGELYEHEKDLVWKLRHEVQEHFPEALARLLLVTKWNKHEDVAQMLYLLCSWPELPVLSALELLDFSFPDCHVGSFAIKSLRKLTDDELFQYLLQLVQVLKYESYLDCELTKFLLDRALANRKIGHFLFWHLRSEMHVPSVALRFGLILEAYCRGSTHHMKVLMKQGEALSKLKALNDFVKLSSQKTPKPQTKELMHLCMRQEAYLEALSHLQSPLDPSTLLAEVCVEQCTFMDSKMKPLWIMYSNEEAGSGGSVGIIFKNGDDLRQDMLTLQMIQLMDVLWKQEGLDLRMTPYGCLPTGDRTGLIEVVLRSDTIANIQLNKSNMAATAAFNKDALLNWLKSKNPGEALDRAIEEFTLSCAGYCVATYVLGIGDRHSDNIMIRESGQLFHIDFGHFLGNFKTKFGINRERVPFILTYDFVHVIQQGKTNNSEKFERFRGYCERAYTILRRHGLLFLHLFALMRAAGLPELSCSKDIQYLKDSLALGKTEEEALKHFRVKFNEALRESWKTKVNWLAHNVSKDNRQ
PI3Kδ, sequence (P27986 whole entry partner, canonical isoform): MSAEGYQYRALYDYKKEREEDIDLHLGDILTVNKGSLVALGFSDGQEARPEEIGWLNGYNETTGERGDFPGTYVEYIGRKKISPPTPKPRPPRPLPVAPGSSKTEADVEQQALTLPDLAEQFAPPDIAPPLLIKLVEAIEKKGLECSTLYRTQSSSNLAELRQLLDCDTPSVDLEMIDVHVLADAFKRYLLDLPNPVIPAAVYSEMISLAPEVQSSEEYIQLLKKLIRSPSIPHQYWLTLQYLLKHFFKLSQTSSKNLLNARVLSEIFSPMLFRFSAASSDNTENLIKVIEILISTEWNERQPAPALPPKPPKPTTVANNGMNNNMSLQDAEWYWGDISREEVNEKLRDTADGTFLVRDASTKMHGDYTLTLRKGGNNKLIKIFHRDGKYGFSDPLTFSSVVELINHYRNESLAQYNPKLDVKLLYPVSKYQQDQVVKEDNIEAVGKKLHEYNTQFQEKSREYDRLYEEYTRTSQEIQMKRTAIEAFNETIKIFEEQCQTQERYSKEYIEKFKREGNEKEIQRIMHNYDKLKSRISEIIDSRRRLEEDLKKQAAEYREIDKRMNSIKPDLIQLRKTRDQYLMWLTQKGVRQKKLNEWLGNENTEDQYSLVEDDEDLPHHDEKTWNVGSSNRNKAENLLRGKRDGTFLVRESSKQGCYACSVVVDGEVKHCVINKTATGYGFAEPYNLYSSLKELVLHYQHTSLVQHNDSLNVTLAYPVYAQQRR

Row | IC50 (PI3Kδ) [nM] | EC50 (basophils; class symbol) [nM] | EC50 (basophils; geometric mean) [nM] | half-life at 2 μM ([1]; class symbol) [h] | half-life at 2 μM ([1]; Table 3) [h] | Compound
1 | 0.6 | 1 to 10 | 2 | > 10 | > 10 | N#Cc1c(N)nc(N)nc1N[C@H](c1nc2cccc(Cl)c2c(=O)n1-c1cccnc1)C1CC1 [Compound 3, (S)-2,4-diamino-6-((5-chloro-4-oxo-3-(pyridin-3-yl)-3,4-dihydroquinazolin-2-yl)(cyclopropyl)methylamino)pyrimidine-5-carbonitrile]
2 | 5 | 1 to 10 | 7 | 6 to 10 | 7 | C[C@H](Nc1nc(N)nc(N)c1C#N)c1nc2cccc(Cl)c2c(=O)n1-c1cncc(C2CC2)c1 [Compound 19, (S)-2,4-diamino-6-(1-(5-chloro-3-(5-cyclopropylpyridin-3-yl)-4-oxo-3,4-dihydroquinazolin-2-yl)ethylamino)pyrimidine-5-carbonitrile]
3 | 1 | < 1 | 0.7 | 6 to 10 | 9 | C[C@H](Nc1nc(N)nc(N)c1C#N)c1nc2c(Cl)ccc(Cl)c2c(=O)n1-c1cncc(F)c1 [Compound 30, (S)-2,4-diamino-6-(1-(5,8-dichloro-3-(5-fluoropyridin-3-yl)-4-oxo-3,4-dihydroquinazolin-2-yl)ethylamino)pyrimidine-5-carbonitrile]
4 | 2 | 1 to 10 | 4 | > 10 | > 10 | N#Cc1c(N)nc(N)nc1N[C@H](c1nc2cccc(Cl)c2c(=O)n1-c1cncc(F)c1)C1CC1 [Compound 21, (S)-2,4-diamino-6-((5-chloro-3-(5-fluoropyridin-3-yl)-4-oxo-3,4-dihydroquinazolin-2-yl)(cyclopropyl)methylamino)pyrimidine-5-carbonitrile]
5 | 1 | < 1 | 0.5 | > 10 | > 10 | C[C@H](Nc1nc(N)nc(N)c1C#N)c1nc2c(F)ccc(Cl)c2c(=O)n1-c1cncc(F)c1 [Compound 31, (S)-2,4-diamino-6-(1-(5-chloro-8-fluoro-3-(5-fluoropyridin-3-yl)-4-oxo-3,4-dihydroquinazolin-2-yl)ethylamino)pyrimidine-5-carbonitrile]
6 | 6 | 1 to 10 | 5 | 6 to 10 | 9 | C[C@H](Nc1nc(N)nc(N)c1C#N)c1nc2c(Cl)cccc2c(=O)n1-c1cccnc1 [Compound 22, (S)-2,4-diamino-6-(1-(8-chloro-4-oxo-3-(pyridin-3-yl)-3,4-dihydroquinazolin-2-yl)ethylamino)pyrimidine-5-carbonitrile]
7 | 0.8 | < 1 | 0.5 | 3 to 6 | 5 | Cc1cccc2nc([C@H](C)Nc3nc(N)nc(N)c3C#N)n(-c3cncc(F)c3)c(=O)c12 [Compound 11, (S)-2,4-diamino-6-(1-(3-(5-fluoropyridin-3-yl)-5-methyl-4-oxo-3,4-dihydroquinazolin-2-yl)ethylamino)pyrimidine-5-carbonitrile]
8 | 14 | 1 to 10 | 2 | > 10 | > 10 | C[C@H](Nc1nc(N)nc(N)c1C#N)c1nc2ccc(F)cc2c(=O)n1-c1cccnc1 [Compound 5, (S)-2,4-diamino-6-(1-(6-fluoro-4-oxo-3-(pyridin-3-yl)-3,4-dihydroquinazolin-2-yl)ethylamino)pyrimidine-5-carbonitrile]
9 | 1 | < 1 | 0.7 | > 10 | > 10 | CC[C@H](Nc1nc(N)nc(N)c1C#N)c1nc2c(F)ccc(Cl)c2c(=O)n1-c1cccnc1 [Compound 26, (S)-2,4-diamino-6-(1-(5-chloro-8-fluoro-4-oxo-3-(pyridin-3-yl)-3,4-dihydroquinazolin-2-yl)propylamino)pyrimidine-5-carbonitrile]
